Tests used:
[1] = Stability test (storage in isopropyl myristate, HPLC peak area ratio); format: physicochemical
Procedure: About 5 mg of each of Inventive Compounds 1 to 5 and enalapril was put in a glass vial. Isopropyl myristate (100 μL) was added, to thereby yield a solution (or suspension). The vial was tightly sealed and stored in a 60° C. thermostatic chamber for one week. Methanol was added to the solution contained in the vial until the total volume of the solution mixture became 100 mL. The resultant solution was employed as a test solution to be subjected to an HPLC analysis. Peak area ratio (expressed by percentage) of each compound with respect to a sum of all the obtained peak areas was calculated.

[2] = system: three-dimensional cultured human skin model (LSE-high, Toyobo Co., Ltd.); test: Metabolism test by use of cultured human skin; format: in vitro ADME; details: receptor phase PBS pH 7.4, 24 hours, 1.0 mass % in isopropyl myristate, 200 μL applied, 37° C.
Procedure: A sample of a three-dimensional cultured human skin model (LSE-high, Toyobo Co., Ltd.) was set in a vertical diffusion cell whose temperature was maintained at 37° C., and the receptor phase of the cell was filled with 7 mL isotonic phosphate buffer (PBS, pH 7.4). The cell was allowed to stand for one hour. Each of Inventive Compounds 1 to 3 and enalapril (serving as a Comparative Example) was dissolved or suspended in isopropyl myristate so as to attain a concentration of 1.0 mass %. The solution (200 μL) was applied to the skin sample, whereby the test started. When 24 hours had passed after the test started, the concentrations of proline esters or enalapril (i.e., a prodrug of enalaprilat) which remained unchanged, and the transformed product enalaprilat contained in PBS in the receptor phase were determined through HPLC. From the obtained data, concentration ratio of “proline esters or enalapril”: “enalaprilat” was calculated (presence ratio).

[3] = in the skin and in the plasma; cited from earlier work
[4] = storage at 60° C. for 1 week, HPLC peak area ratio

Area ratio: Closed ring product [1, 4] [%]	Area ratio: Enalaprilat [1, 4] [%]	Area ratio: Proline ester compound [1, 4] [%]	Presence ratio: proline ester or enalapril (unchanged) part of concentration ratio [2]	Stability on storage (in words) ([1]; 60° C., one week)	Area ratio: Enalapril [1, 4] [%]	SMILES	Conversion of percutaneously absorbed enalapril to enalaprilat (in words) [3]
0.0	0.0	99.1	–	–	–	COCCOC(=O)[C@@H]1CCCN1C(=O)[C@H](C)N[C@@H](CCc1ccccc1)C(=O)O [Inventive Compound 4, 1-[N-[(1S)-1-Carboxy-3-phenylpropyl]-L-alanyl]-L-proline 2-methoxyethyl ester]	–
0.0	0.0	94.2	–	–	–	COCCOCCOC(=O)[C@@H]1CCCN1C(=O)[C@H](C)N[C@@H](CCc1ccccc1)C(=O)O [Inventive Compound 5, 1-[N-[(1S)-1-Carboxy-3-phenylpropyl]-L-alanyl]-L-proline 2-(2-methoxyethoxy)ethyl ester]	–

The next lines start with the compound.

SMILES	Area ratio: Closed ring product [1, 4] [%]	Area ratio: Enalaprilat [1, 4] [%]	Area ratio: Proline ester compound [1, 4] [%]	Presence ratio: proline ester or enalapril (unchanged) part of concentration ratio [2]	Stability on storage (in words) ([1]; 60° C., one week)	Area ratio: Enalapril [1, 4] [%]	Conversion of percutaneously absorbed enalapril to enalaprilat (in words) [3]
C[C@H](N[C@@H](CCc1ccccc1)C(=O)O)C(=O)N1CCC[C@H]1C(=O)OCCCO [Inventive Compound 2, 1-[N-[(1S)-1-Carboxy-3-phenylpropyl]-L-alanyl]-L-proline 3-hydroxypropyl ester]	0.0	0.0	96.7	36.3	–	–	–
C[C@H](N[C@@H](CCc1ccccc1)C(=O)O)C(=O)N1CCC[C@H]1C(=O)OCCO [Inventive Compound 1, 1-[N-[(1S)-1-Carboxy-3-phenylpropyl]-L-alanyl]-L-proline 2-hydroxyethyl ester]	0.0	0.0	91.8	23.5	–	–	–
CCOC(=O)[C@H](CCc1ccccc1)N[C@@H](C)C(=O)N1CCC[C@H]1C(=O)O [Enalapril, reference compound]	48.4	0.0	–	98.8	completely degraded	0.0	not converted to enalaprilat
C[C@H](N[C@@H](CCc1ccccc1)C(=O)O)C(=O)N1CCC[C@H]1C(=O)OCCCCO [Inventive Compound 3, 1-[N-[(1S)-1-Carboxy-3-phenylpropyl)-L-alanyl]-L-proline 4-hydroxybutyl ester]	0.0	0.0	94.4	30.4	–	–	–

— patent US7323489B2, “Proline ester and preparation containing the same for percutaneous administration” (Toaeiyo Ltd., priority 2002, dated 2008)
